These results are taken from patent US8697742B2, “BCRP/ABCG2 inhibitor” (Kabushiki Kaisha Yakult Honsha, priority 2005, dated 2014).

The structures appear in SMILES notation. Values after ≈ are worked out from the molar mass of the structure shown. Where a name gives a salt, the structure may show the parent alone.

For one assay, the system named is A549/SN-38-4 cells. The experiment in a line: Effect of overcoming SN-38 resistance of BCRP-expressing A549/SN-38-4 cells. The format is cell-based, human. The note with it: Homo sapiens, A549, 48 h, concentration for 50% reduction of relative SN-38 resistance value (IC50 A549/SN-38-4 / IC50 A549); 48 hours culture with SN-38; read-out: Effect of overcoming resistance EC50. As to the method:
The human lung cancer A549 cells or the A549/SN-38-4 cells were suspended in a Ham's F-12 medium containing 10% FBS, 100 U/mL of penicillin, and 100 μg/mL of streptomycin (10% FBS/Ham's F-12), and the resultant suspension was inoculated into a 96-well microplate (2×10^3 cells/50 μL/well), followed by culturing at 5% CO2 and 37° C. overnight. […] After completion of culturing, the number of viable cells was counted by use of a viable cell counting reagent [TetraColor ONE (trademark), product of Seikagaku Corporation] according to the attached instruction manual. […] The greater the relative resistance value, the higher the level of acquired resistance.
For `COc1ccc(/C(C#N)=C/c2ccc(Br)s2)cc1OC` [Compound 2, (Z)-3-(5-bromo-thiophen-2-yl)-2-(3,4-dimethoxy-phenyl)-acrylonitrile], the EC50 came to 0.13 µg/mL (≈ 0.371 µM).
As to `COc1ccc(/C(C#N)=C/c2ccc(N(C)CCO)s2)cc1OC` [Compound 7, (Z)-2-(3,4-dimethoxy-phenyl)-3-{5-[(2-hydroxy-ethyl)-methyl-amino]-thiophen-2-yl}-acrylonitrile], the EC50 turned out to be 0.039 µg/mL (≈ 0.113 µM).
The same measure, in the same setting: then `COc1ccc(/C(C#N)=C/c2ccc(N3CCN(C)CC3)s2)cc1OC` [Compound 8, (Z)-2-(3,4-dimethoxy-phenyl)-3-[5-(4-methyl-piperazin-1-yl)-thiophen-2-yl]-acrylonitrile], with 0.045 µg/mL (≈ 0.122 µM); and `COc1ccc(/C(C#N)=C/c2ccc(N3CCN(CCO)CC3)s2)cc1OC` [Compound 9, (Z)-2-(3,4-dimethoxy-phenyl)-3-{5-[4-(2-hydroxy-ethyl)-piperazin-1-yl]-thiophen-2-yl}-acrylonitrile], with 0.046 µg/mL (≈ 0.115 µM).
On the same count and under the same terms, as for `COc1ccc(/C(C#N)=C/c2ccc(N(C)CCN(C)C)s2)cc1OC` [Compound 10, (Z)-2-(3,4-dimethoxy-phenyl)-3-{5-[(2-dimethylamino-ethyl)-methyl-amino]-thiophen-2-yl}-acrylonitrile], the figure is 0.12 µg/mL (≈ 0.323 µM); as for `COc1ccc(/C(C#N)=C/c2ccc(N3CCCCC3)o2)cc1OC` [Compound 24, (Z)-2-(3,4-dimethoxy-phenyl)-3-(5-piperidin-1-yl-furan-2-yl)-acrylonitrile], 0.034 µg/mL (≈ 0.1 µM); as for `COc1ccc(/C=C(\C#N)c2ccc(OC)c(OC)c2)cn1` [Compound 35, (Z)-2-(3,4-dimethoxy-phenyl)-3-(6-methoxy-pyridin-3-yl)-acrylonitrile], 0.19 µg/mL (≈ 0.641 µM).
Same read-out and setting: as for `COc1ccc(/C(C#N)=C/c2ccc(Br)o2)cc1OC` [Compound 54, (Z)-3-(5-bromo-furan-2-yl)-2-(3,4-dimethoxy-phenyl)-acrylonitrile], the figure is 0.036 µg/mL (≈ 0.108 µM); as for `COc1ccc(/C(C#N)=C/c2ccc(N3CCN(CCO)CC3)s2)cc1OC.CS(=O)(=O)O` [Compound 59, (Z)-2-(3,4-dimethoxy-phenyl)-3-{5-[4-(2-hydroxy-ethyl)-piperazin-1-yl]-thiophen-2-yl}-acrylonitrile methanesulfonate], 0.061 µg/mL.
For `CCN(CC)CCCNC(=O)CCC(=O)OC1CCN(c2ccc(/C=C(\C#N)c3ccc(OC)c(OC)c3)s2)CC1` [Compound 61, 1-[5-[(Z)-2-cyano-2-(3,4-dimethoxy-phenyl)-vinyl]-thiophen-2-yl]-piperidin-4-yl N-(3-diethylamino-propyl)-succinamate hydrochloride], the 50% effective concentration (EC50) was 0.044 µg/mL.
Same read-out and setting: then `COc1ccc(/C(C#N)=C/c2ccc(N3CCC(OC(=O)CN(C)C)CC3)s2)cc1OC.Cc1ccc(S(=O)(=O)O)cc1` [Compound 62, 1-[5-[(Z)-2-cyano-2-(3,4-dimethoxy-phenyl)-vinyl]-thiophen-2-yl]-piperidin-4-yl dimethylamino-acetate p-toluenesulfonate], with 0.062 µg/mL.
The same measure, in the same setting: then `COc1ccc(/C(C#N)=C/c2ccnc3ccccc23)cc1OC` [Compound 65, (Z)-2-(3,4-dimethoxy-phenyl)-3-quinolin-4-yl-acrylonitrile], with 0.011 µg/mL (≈ 0.0348 µM); and `COc1ccc(/C(C#N)=C/c2csc3ccccc23)cc1OC` [Compound 66, (Z)-3-benzo[b]thiophen-3-yl-2-(3,4-dimethoxy-phenyl)-acrylonitrile], with 0.037 µg/mL (≈ 0.115 µM).
`COc1ccc(/C(C#N)=C/c2nc3ccccc3n2C)cc1OC` [Compound 67, (Z)-2-(3,4-dimethoxy-phenyl)-3-(1-methyl-1H-benzimidazol-2-yl)-acrylonitrile]: the EC50 was 0.1 µg/mL (≈ 0.313 µM).
For the molecule `COc1ccc(/C(C#N)=C/c2cn(C)c3ccccc23)cc1OC` [Compound 68, (Z)-2-(3,4-dimethoxy-phenyl)-3-(1-methyl-1H-indol-3-yl)-acrylonitrile], the EC50 was 0.011 µg/mL (≈ 0.0346 µM).
The same measure, in the same setting: then `COc1ccc(/C(C#N)=C/c2cc3ccccc3nc2Cl)cc1OC` [Compound 70, (Z)-3-(2-chloro-quinolin-3-yl)-2-(3,4-dimethoxy-phenyl)-acrylonitrile], with 0.011 µg/mL (≈ 0.0314 µM); and `COc1ccc2nc(Cl)c(/C=C(\C#N)c3ccc(OC)c(OC)c3)cc2c1` [Compound 73, (Z)-3-(2-chloro-6-methoxy-quinolin-3-yl)-2-(3,4-dimethoxy-phenyl)-acrylonitrile], with 0.011 µg/mL (≈ 0.0289 µM).
Regarding `COc1ccc(/C=C(\C#N)c2nc3ccccc3s2)cc1OC` [Compound 74, (E)-2-benzothiazol-2-yl-3-(3,4-dimethoxy-phenyl)-acrylonitrile], the EC50 was determined as 0.021 µg/mL (≈ 0.0651 µM).
Same read-out and setting: as for `COc1ccc(/C(C#N)=C/c2ccc3c(c2)CCO3)cc1OC` [Compound 75, (Z)-3-(2,3-dihydro-benzofuran-5-yl)-2-(3,4-dimethoxy-phenyl)-acrylonitrile], the figure is 0.017 µg/mL (≈ 0.0553 µM); as for `COc1ccc(/C(C#N)=C/c2cc(-c3ccc(F)cc3)on2)cc1OC` [Compound 76, (Z)-2-(3,4-dimethoxy-phenyl)-3-[5-(4-fluoro-phenyl)-isoxazol-3-yl]-acrylonitrile], 0.002 µg/mL (≈ 0.00571 µM).
With `COc1ccc(-c2cc(/C=C(\C#N)c3ccc(OC)c(OC)c3)no2)cc1` [Compound 77, (Z)-2-(3,4-dimethoxy-phenyl)-3-[5-(4-methoxy-phenyl)-isoxazol-3-yl]-acrylonitrile], the EC50 was determined as 0.11 µg/mL (≈ 0.304 µM).
Consider `COc1ccc(/C(C#N)=C/c2ccc3ccccc3n2)cc1OC` [Compound 78, (Z)-2-(3,4-dimethoxy-phenyl)-3-quinolin-2-yl-acrylonitrile], for which the EC50 worked out at 0.077 µg/mL (≈ 0.243 µM).
On the same count and under the same terms, then `COc1ccc2nc(Cl)c(/C=C(\C#N)c3ccccn3)cc2c1` [Compound 79, (Z)-3-(2-chloro-6-methoxy-quinolin-3-yl)-2-pyridin-2-yl-acrylonitrile], with 0.006 µg/mL (≈ 0.0186 µM); and `COc1ccc2nc(Cl)c(/C=C(\C#N)c3cccnc3)cc2c1` [Compound 80, (Z)-3-(2-chloro-6-methoxy-quinolin-3-yl)-2-pyridin-3-yl-acrylonitrile], with 0.019 µg/mL (≈ 0.059 µM).

The same assay, now with this note: concentration for 50% reduction of relative SN-38 resistance value (IC50 A549/SN-38-4 / IC50 A549); 48 hours culture with SN-38.
In the case of `COc1ccc(/C(C#N)=C/c2ccc(-c3cccc(N)c3)o2)cc1OC` [Compound 22, (Z)-3-[5-(3-amino-phenyl)-furan-2-yl]-2-(3,4-dimethoxy-phenyl)-acrylonitrile], the “Effect of overcoming resistance EC50” value was 0.013 µg/mL.
Take `COc1ccc(/C(C#N)=C/c2ccc(N3CCC(OC(=O)CCC(=O)O)CC3)o2)cc1OC` [Compound 51, mono-(1-{5-[(Z)-2-cyano-2-(3,4-dimethoxy-phenyl)-vinyl]-furan-2-yl}-piperidin-4-yl)succinate]: the “Effect of overcoming resistance EC50” value was 0.51 µg/mL.
On the same count and under the same terms, then `COc1ccc(/C(C#N)=C/c2ccc(N3CCC(OC(=O)CCC(=O)N4CCC(N5CCCCC5)CC4)CC3)s2)cc1OC.Cl` [Compound 64, 1-[5-[(Z)-2-cyano-2-(3,4-dimethoxy-phenyl)-vinyl]-thiophen-2-yl]-piperidin-4-yl 4-[1,4′]bipiperidinyl-1′-yl-4-oxo-butylate hydrochloride], with 0.053 µg/mL; and `COc1ccc(/C(C#N)=C/c2cc3ccccc3o2)cc1OC` [Compound 69, (Z)-3-benzofuran-2-yl-(3,4-dimethoxy-phenyl)-acrylonitrile], with 0.043 µg/mL.
Same read-out and setting: then `COc1ccc(/C=C(\C#N)c2coc3ccccc23)cc1OC` [Compound 72, (Z)-2-benzofuran-3-yl-3-(3,4-dimethoxy-phenyl)-acrylonitrile], with 0.011 µg/mL.

Still in this assay, the particulars now being: concentration for 50% reduction of relative SN-38 resistance value (IC50 A549/SN-38-4 / IC50 A549); 48 hours culture with SN-38; hydrochloride.
Regarding `COc1ccc(/C(C#N)=C/c2ccc(N3CCCCC3)s2)cc1OC` [Compound 11, (Z)-2-(3,4-dimethoxy-phenyl)-3-(5-piperidin-1-yl-thiophen-2-yl)-acrylonitrile hydrochloride], the “Effect of overcoming resistance EC50” value stood at 0.049 µg/mL.
The same measure, in the same setting: as for `COc1ccc(/C(C#N)=C/c2ccc(N(C)CCN(C)C)s2)cc1OC` [Compound 15, (Z)-2-(3,4-dimethoxy-phenyl)-3-{5-[(2-dimethylamino-ethyl)-methyl-amino]-thiophen-2-yl}-acrylonitrile hydrochloride], the figure is 0.2 µg/mL.
For the molecule `COc1ccc(/C(C#N)=C/c2ccc(N3CCN(C)CC3)o2)cc1OC` [Compound 29, (Z)-2-(3,4-dimethoxy-phenyl)-3-[5-(4-methyl-piperazin-1-yl)-furan-2-yl]-acrylonitrile hydrochloride], the “Effect of overcoming resistance EC50” value stood at 0.42 µg/mL.
On the same count and under the same terms, as for `COc1ccc(/C(C#N)=C/c2cccnc2)cc1OC` [Compound 36, (Z)-2-(3,4-dimethoxy-phenyl)-3-pyridin-3-yl-acrylonitrile hydrochloride], the figure is 0.12 µg/mL; as for `COc1ccc(/C=C(\C#N)c2ccc(OC)c(OC)c2)cn1` [Compound 37, (Z)-2-(3,4-dimethoxy-phenyl)-3-(6-methoxy-pyridin-3-yl)-acrylonitrile hydrochloride], 0.12 µg/mL.
The same measure, in the same setting: then `COc1ccc(/C=C(\C#N)c2ccccn2)cc1OC` [Compound 47, (Z)-3-(3,4-dimethoxy-phenyl)-2-pyridin-2-yl-acrylonitrile hydrochloride], with 0.03 µg/mL; and `COc1ccc(/C(C#N)=C/c2ccc(N3CCN(CCO)CC3)o2)cc1OC` [Compound 50, (Z)-2-(3,4-dimethoxy-phenyl)-3-{5-[4-(2-hydroxy-ethyl)-piperazin-1-yl]-furan-2-yl}-acrylonitrile hydrochloride], with 0.11 µg/mL.

Usually EC50 stands for the concentration giving half of the maximal effect.
